Laboratory results from patent US20130344026A1, “Dimeric Smac Mimetics” (priority 2009, published 2013).

Test system: HCC461
Assay: cell viability assay in HCC461, compound alone
Type: cell-based
Conditions: HCC461, HCC461; Tables 6-9; read-out: IC50 (μM) in cell viability assay in HCC461

Going from `CN[C@@H](C)C(=O)N[C@H](C(=O)N1CC[C@H](NC(=O)c2cccc(C(=O)N[C@H]3C[C@@H](C(=O)N[C@@H]4CCCc5ccccc54)N(C(=O)[C@@H](NC(=O)[C@H](C)NC)C(C)(C)C)C3)c2)C1)C(C)(C)C` [Compound 131] to `CN[C@@H](C)C(=O)N[C@@H](CCCCNC(=O)c1cccc(C(=O)N[C@H]2C[C@@H](C(=O)N[C@@H]3CCCc4ccccc43)N(C(=O)[C@@H](NC(=O)[C@H](C)NC)C(C)(C)C)C2)c1)C(=O)N1CC=C[C@H]1C(=O)N[C@@H]1CCCc2ccccc21` [Compound 144], the IC50 falls from 0.642 µM to 0.043 µM (15-fold). The second is the more potent here.

Compared with `CN[C@@H](C)C(=O)N[C@@H](CCCCNC(=O)c1cccc(C(=O)N[C@H]2C[C@@H](C(=O)N[C@@H]3CCCc4ccccc43)N(C(=O)[C@@H](NC(=O)[C@H](C)NC)C(C)(C)C)C2)c1)C(=O)N1CCCC[C@H]1C(=O)N[C@@H]1CCCc2ccccc21` [Compound 143], `CN[C@@H](C)C(=O)N[C@@H](CC#CC#CC[C@H](NC(=O)[C@H](C)NC)C(=O)N1CC=C[C@H]1C(=O)N[C@@H]1CCCc2ccccc21)C(=O)N1CC=C[C@H]1C(=O)N[C@@H]1CCCc2ccccc21` [Compound 89] is 15-fold higher in IC50: 0.027 µM for the first, 0.414 µM for the second.

For `CN[C@@H](C)C(=O)N[C@@H](CCC(=O)N[C@H]1CC(C(=O)N[C@H](C)c2ccccc2)N(C(=O)[C@@H](NC(=O)[C@H](C)NC)C(C)(C)C)C1)C(=O)N[C@H](C(=O)N[C@@H](C)C(C)C)C(C)(C)C` (stereo partly drawn) [Compound 164], the IC50 was > 30 µM.

Same assay, conditions: HCC461, HCC461; Tables 15-18; read-out: IC50 (uM) in cell viability assay in HCC461

First: CN[C@@H](C)C(=O)N[C@@H](CCCCNC(=O)c1cccc(C(=O)NCCCC[C@H](NC(=O)[C@H](C)NC)C(=O)N2CCC[C@H]2C(=O)NC(c2ccccc2)c2ccccc2)c1)C(=O)N1CCC[C@H]1C(=O)NC(c1ccccc1)c1ccccc1 [Compound P2-29]
Second: CN[C@@H](C)C(=O)N[C@@H](CCCCCC[C@H](NC(=O)[C@H](C)NC)C(=O)N1CCC[C@H]1C(=O)NC1c2ccccc2-c2ccccc21)C(=O)N1CCC[C@H]1C(=O)NC1c2ccccc2-c2ccccc21 [Compound P2-6]
The IC50 of the first is 14-fold higher: 0.324 µM for the first, 0.024 µM for the second.

Compared with `CN[C@@H](C)C(=O)N[C@@H](COCC#CC#CCOC[C@H](NC(=O)[C@H](C)NC)C(=O)N1CCCC1C(=O)N[C@@H]1CCCc2ccccc21)C(=O)N1CCCC1C(=O)N[C@@H]1CCCc2ccccc21` (stereo partly drawn) [Compound P2-19], `CN[C@@H](CO)C(=O)N[C@@H](CC#CC#CC[C@H](NC(=O)[C@H](CO)NC)C(=O)N1CCC[C@H]1C(=O)NC1c2ccccc2-c2ccccc21)C(=O)N1CCC[C@H]1C(=O)NC1c2ccccc2-c2ccccc21` [Compound P2-17] is 5.4-fold higher in IC50: 0.025 µM for the first, 0.134 µM for the second.

Compared with `CN[C@@H](C)C(=O)N[C@H](C(=O)N1CCC[C@H]1Cn1nnnc1SC(C)(C)C)[C@@H](C)OCC#CC#CCO[C@H](C)[C@H](NC(=O)[C@H](C)NC)C(=O)N1CCC[C@H]1Cn1nnnc1SC(C)(C)C` [Compound P2-21], `CN[C@@H](C)C(=O)N[C@H](C(=O)N1CCC[C@H]1C(=O)N[C@H](CNC(=O)c1ccc(C(=O)NC[C@@H](NC(=O)[C@@H]2CCCN2C(=O)[C@@H](NC(=O)[C@H](C)NC)C(C)(C)C)c2ccccc2)cc1)c1ccccc1)C(C)(C)C` [Compound P4-12] is 6.3-fold lower in IC50: 0.24 µM for the first, 0.038 µM for the second.

Going from `CN[C@@H](C)C(=O)N[C@H](C(=O)N1CCC[C@H]1C(=O)N[C@H](CNC(=O)c1cccc(C(=O)NC[C@@H](NC(=O)[C@@H]2CCCN2C(=O)[C@@H](NC(=O)[C@H](C)NC)C2CCCCC2)C2CCCCC2)c1)C1CCCCC1)C1CCCCC1` [Compound P4-16] to `CN[C@@H](C)C(=O)N[C@H](C(=O)N1CCC[C@H]1C(=O)N[C@H](CNC(=O)c1cc(N)cc(C(=O)NC[C@@H](NC(=O)[C@@H]2CCCN2C(=O)[C@@H](NC(=O)[C@H](C)NC)C(C)(C)C)C2CCCCC2)c1)C1CCCCC1)C(C)(C)C` [Compound P4-9], the IC50 rises from 0.13 µM to 0.53 µM (4.1-fold).

For `CN[C@@H](C)C(=O)N[C@@H](Cc1ccc(O[C@H]2C[C@@H](C(=O)N[C@@H]3CCCc4ccccc43)N(C(=O)[C@@H](NC(=O)[C@H](C)NC)C(C)(C)C)C2)cc1)C(=O)N1CCCC1` [Compound H-3], the IC50 was 0.088 µM.

Same assay, conditions: HCC461, HCC461 cells, compound alone; read-out: IC50 (uM) in cell viability assay in HCC461

Going from `CN[C@@H](C)C(=O)N[C@H](C(=O)N1C[C@@H](NC(=O)Cc2cccc(CC(=O)N[C@H]3C[C@@H](C(=O)N[C@@H]4CCCc5ccccc54)N(C(=O)[C@@H](NC(=O)[C@H](C)NC)C(C)(C)C)C3)c2)C[C@H]1C(=O)N[C@@H]1CCCc2ccccc21)C(C)(C)C` [Compound P3-19] to `CN[C@@H](C)C(=O)N[C@H](C(=O)N1C[C@@H](NC(=O)CNCC(=O)N[C@H]2C[C@@H](C(=O)N[C@@H]3CCCc4ccccc43)N(C(=O)[C@@H](NC(=O)[C@H](C)NC)C(C)(C)C)C2)C[C@H]1C(=O)N[C@@H]1CCCc2ccccc21)C(C)(C)C` [Compound P3-35], the IC50 rises from 0.002 µM to 0.048 µM (24-fold).

Compared with `C#CC[C@H](NC(=O)[C@H](C)NC)C(=O)N1C[C@@H](NC(=O)c2cc(N)cc(C(=O)N[C@H]3C[C@@H](C(=O)N[C@@H]4CCCc5ccccc54)N(C(=O)[C@H](CC#C)NC(=O)[C@H](C)NC)C3)c2)C[C@H]1C(=O)N[C@@H]1CCCc2ccccc21` [Compound P3-62], `C#CC[C@H](NC(=O)[C@H](C)NC)C(=O)N1C[C@@H](NC(=O)c2ccc(C(=O)N[C@H]3C[C@@H](C(=O)N[C@@H]4CCCc5ccccc54)N(C(=O)[C@H](CC#C)NC(=O)[C@H](C)NC)C3)cc2)C[C@H]1C(=O)N[C@@H]1CCCc2ccccc21` [Compound P3-4] is 33-fold lower in IC50: 0.198 µM for the first, 0.006 µM for the second.

Going from `CN[C@@H](C)C(=O)N[C@H](C(=O)N1C[C@@H](n2cc(-c3cccc(-c4cn([C@H]5C[C@@H](C(=O)N[C@H](C)c6ccccc6)N(C(=O)[C@@H](NC(=O)[C@H](C)NC)C(C)(C)C)C5)nn4)c3)nn2)C[C@H]1C(=O)N[C@H](C)c1ccccc1)C(C)(C)C` [Compound P3-88] to `CN[C@@H](C)C(=O)N[C@H](C(=O)N1C[C@@H](n2cc(CNC(=O)NCc3cn([C@H]4C[C@@H](C(=O)N[C@@H]5CCCc6ccccc65)N(C(=O)[C@@H](NC(=O)[C@H](C)NC)C(C)(C)C)C4)nn3)nn2)C[C@H]1C(=O)N[C@@H]1CCCc2ccccc21)C(C)(C)C` [Compound P3-5], the IC50 rises from 0.033 µM to 0.061 µM (1.8-fold).

First: C#CC[C@H](NC(=O)[C@H](C)NC)C(=O)N1C[C@@H](NC(=O)N[C@H]2C[C@@H](C(=O)N[C@@H]3CCCc4ccccc43)N(C(=O)[C@H](CC#C)NC(=O)[C@H](C)NC)C2)CC1C(=O)N[C@@H]1CCCc2ccccc21 (stereo partly drawn) [Compound P3-9]
Second: CN[C@@H](C)C(=O)N[C@H](C(=O)N1C[C@@H](NC(=O)C/C=C/CC(=O)N[C@H]2C[C@@H](C(=O)N[C@@H]3CCCc4ccccc43)N(C(=O)[C@@H](NC(=O)[C@H](C)NC)C(C)(C)C)C2)C[C@H]1C(=O)N[C@@H]1CCCc2ccccc21)C(C)(C)C [Compound P3-32]
The IC50 of the first is 14-fold higher: 0.086 µM for the first, 0.006 µM for the second. The second is the more potent here.

First: CC[C@H](C)[C@H](NC(=O)[C@H](C)NC)C(=O)N1C[C@@H](NC(=O)c2cc(C(=O)N[C@H]3C[C@@H](C(=O)N[C@H](C)c4ccccc4)N(C(=O)[C@@H](NC(=O)[C@H](C)NC)[C@@H](C)CC)C3)[nH]n2)C[C@H]1C(=O)N[C@H](C)c1ccccc1 [Compound P3-69]
Second: CC[C@@H](C)C(=O)N[C@H](C(=O)N1C[C@@H](NC(=O)c2cccc(C(=O)N[C@H]3C[C@@H](C(=O)NC(c4ccccc4)c4ccccc4)N(C(=O)[C@@H](NC(=O)[C@H](C)NC)C(C)(C)C)C3)c2)C[C@H]1C(=O)NC(c1ccccc1)c1ccccc1)C(C)(C)C [Compound P3-51]
The IC50 of the first is 1.5-fold lower: 0.017 µM for the first, 0.026 µM for the second. The first is the more potent here.

Compared with `CN[C@@H](C)C(=O)N[C@H](C(=O)N1C[C@@H](NC(=O)C(C)C(C)C(=O)N[C@H]2C[C@@H](C(=O)N[C@@H]3CCCc4ccccc43)N(C(=O)[C@@H](NC(=O)[C@H](C)NC)C(C)(C)C)C2)C[C@H]1C(=O)N[C@@H]1CCCc2ccccc21)C(C)(C)C` (stereo partly drawn) [Compound P3-24], `CN[C@@H](C)C(=O)N[C@H](C(=O)N1C[C@@H](NC(=O)CC(C)(C)CC(=O)N[C@H]2C[C@@H](C(=O)N[C@@H]3CCCc4ccccc43)N(C(=O)[C@@H](NC(=O)[C@H](C)NC)C(C)(C)C)C2)C[C@H]1C(=O)N[C@@H]1CCCc2ccccc21)C(C)(C)C` [Compound P3-33] is 2.8-fold higher in IC50: 0.006 µM for the first, 0.017 µM for the second. The first is the more potent here.

Compared with `CN[C@@H](C)C(=O)N[C@H](C(=O)N1C[C@@H](NC(=O)c2nn[nH]c2C(=O)N[C@H]2C[C@@H](C(=O)NC3CCCc4ccccc43)N(C(=O)[C@@H](NC(=O)[C@H](C)NC)C(C)(C)C)C2)CC1C(=O)N[C@@H]1CCCc2ccccc21)C(C)(C)C` (stereo partly drawn) [Compound P3-26], `CN[C@@H](C)C(=O)N[C@H](C(=O)N1C[C@@H](NC(=O)c2cc(C(=O)N[C@H]3C[C@@H](C(=O)NC4CCCc5ccccc54)N(C(=O)[C@@H](NC(=O)[C@H](C)NC)C(C)(C)C)C3)ccc2Br)CC1C(=O)N[C@@H]1CCCc2ccccc21)C(C)(C)C` (stereo partly drawn) [Compound P3-30] is 4.5-fold lower in IC50: 0.058 µM for the first, 0.013 µM for the second.

Compared with `CN[C@@H](C)C(=O)N[C@H](C(=O)N1C[C@@H](NC(=O)c2cccc(C(=O)N[C@H]3C[C@@H](C(=O)N[C@H](C)C(C)C)N(C(=O)[C@@H](NC(=O)[C@H](C)NC)C(C)(C)C)C3)c2)C[C@H]1C(=O)N[C@H](C)C(C)C)C(C)(C)C` [Compound P3-83], `CN[C@@H](C)C(=O)N[C@H](C(=O)N1C[C@@H](NC(=O)CCCCC(=O)N[C@H]2C[C@@H](C(=O)N[C@@H]3CCCc4ccccc43)N(C(=O)[C@@H](NC(=O)[C@H](C)NC)C(C)(C)C)C2)C[C@H]1C(=O)N[C@@H]1CCCc2ccccc21)C(C)(C)C` [Compound P3-22] is 65-fold lower in IC50: 0.196 µM for the first, 0.003 µM for the second. The second is the more potent here.

With `CN[C@@H](C)C(=O)N[C@H](C(=O)N1CCC[C@H]1C(=O)N[C@H](CNC(=O)[C@@H]1CC[C@](C)(C(=O)NC[C@@H](NC(=O)[C@@H]2CCCN2C(=O)[C@@H](NC(=O)[C@H](C)NC)C(C)(C)C)c2ccccc2)C1(C)C)c1ccccc1)C(C)(C)C` [Compound P3-48] the IC50 was 0.183 µM.

Same assay, conditions: HCC461 cells, compound alone; read-out: IC50 (uM) in cell viability assay in HCC461

Compared with `CN[C@@H](C)C(=O)N[C@H](C(=O)N1C[C@@H](NC(=O)C2CCCC(C(=O)N[C@H]3C[C@@H](C(=O)N[C@H](C)C4CCCCC4)N(C(=O)[C@@H](NC(=O)[C@H](C)NC)C(C)(C)C)C3)C2)C[C@H]1C(=O)N[C@H](C)C1CCCCC1)C(C)(C)C` (stereo partly drawn) [Compound P3-47], `CN[C@@H](C)C(=O)N[C@H](C(=O)N1C[C@@H](NC(=O)c2cccc(C(=O)N[C@H]3C[C@@H](C(=O)NC4CCCC5CCCCC54)N(C(=O)[C@@H](NC(=O)[C@H](C)NC)C(C)(C)C)C3)c2)C[C@H]1C(=O)NC1CCCC2CCCCC21)C(C)(C)C` (stereo partly drawn) [Compound P3-59] is 20-fold higher in IC50: 0.022 µM for the first, 0.45 µM for the second.
